Results: ChEMBL document CHEMBL1629425, “Antibacterial prenylated acylphloroglucinols from the fern Elaphoglossum yungense” (2010)
In brackets after ≈: the same amount, converted by molar mass. Activity calls are given as the source filed them. The rule behind the calls is not given here.

Assays:
Pseudomonas aeruginosa [1] = assay: Antibacterial activity against Pseudomonas aeruginosa ATCC 27853 after 24 hrs by Broth micro dilution method; type: functional; conditions: ATCC 27853, 24 h
Staphylococcus aureus [2] = assay: Antibacterial activity against Staphylococcus aureus ATCC 6738 assessed as growth inhibition at 10 ug/ml after 24 hrs by Broth micro dilution method relative to control; type: functional; conditions: ATCC 6738, 24 h, read-out: GI
Staphylococcus aureus [3] = assay: increase in biofilm formation of Staphylococcus aureus ATCC 6738 at 10 ug/ml relative to control; type: functional, organism-based
Staphylococcus aureus [4] = assay: Antibacterial activity against Staphylococcus aureus ATCC 6738 after 24 hrs by Broth micro dilution method; type: functional; conditions: ATCC 6738, 24 h
Pseudomonas aeruginosa [5] = assay: Antibacterial activity against Pseudomonas aeruginosa ATCC 27853 assessed as growth inhibition at 10 ug/ml after 24 hrs by Broth micro dilution method relative to control; type: functional; conditions: ATCC 27853, 24 h, read-out: GI

SMILES	MBC (Pseudomonas aeruginosa [1]) [µg/mL]	MIC (Pseudomonas aeruginosa [1]) [µg/mL]	inhibition of growth at 10 µg/mL (Staphylococcus aureus [2]) [%]	Activity (Staphylococcus aureus [3])	MBC (Staphylococcus aureus [4]) [µg/mL]	MIC (Staphylococcus aureus [4]) [µg/mL]	inhibition of growth at 10 µg/mL (Pseudomonas aeruginosa [5]) [%]
CCCC(=O)c1c(O)c(C/C=C(\C)CCC=C(C)C)c(O)c(CC2=C(O)C(C)(C/C=C(\C)CCC=C(C)C)C(O)=C(C(C)=O)C2=O)c1O (stereo not given) [YUNGENSIN E]	200 (≈ 302 µM)	100 (≈ 151 µM)	87	inactive	200 (≈ 302 µM)	100 (≈ 151 µM)	87
CCCC(=O)c1c(O)c(CC=C(C)C)c(O)c(CC2=C(O)C(C)(C/C=C(\C)CCC=C(C)C)C(O)=C(C(C)=O)C2=O)c1O (stereo not given) [YUNGENSIN D]	100 (≈ 168 µM)	50 (≈ 84.1 µM)	83		> 200	100 (≈ 168 µM)	86
CCCC(=O)c1c(O)c2c(c(CC3=C(O)C(C)(C/C=C(\C)CCC=C(C)C)C(O)=C(C(C)=O)C3=O)c1O)OC(C)(C)C=C2 (stereo not given) [YUNGENSIN F]	50 (≈ 84.4 µM)	50 (≈ 84.4 µM)	93	inactive	100 (≈ 169 µM)	50 (≈ 84.4 µM)	86
CCCCCC(=O)c1c(O)c(CC2=C(O)C(C)(C/C=C(\C)CCC=C(C)C)C(O)=C(C(C)=O)C2=O)c(O)c2c1OC(C)(C)C=C2 (stereo not given) [YUNGENSIN B]	50 (≈ 80.5 µM)	10 (≈ 16.1 µM)	99	inactive	100 (≈ 161 µM)	10 (≈ 16.1 µM)	99
CCCC(=O)c1c(O)c(CC2=C(O)C(C)(C/C=C(\C)CCC=C(C)C)C(O)=C(C(C)=O)C2=O)c(O)c2c1OC(C)(CCC=C(C)C)C=C2 (stereo not given) [YUNGENSIN C]	50 (≈ 75.7 µM)	50 (≈ 75.7 µM)	92		100 (≈ 151 µM)	50 (≈ 75.7 µM)	87
CCCC(=O)c1c(O)c(CC2=C(O)C(C)(C/C=C(\C)CCC=C(C)C)C(O)=C(C(C)=O)C2=O)c(O)c2c1OC(C)(C)C=C2 (stereo not given) [YUNGENSIN A]	50 (≈ 84.4 µM)	10 (≈ 16.9 µM)	99	inactive	50 (≈ 84.4 µM)	10 (≈ 16.9 µM)	99
